Consider 1 substance from publication PMC4619319, “A potent anti-inflammatory peptide from the salivary glands of horsefly” (Parasites & Vectors, 2015).

Data set [1] deals with RAW264.7 cells. Conditions: CCK-8, 24 h, concentration as high as 200 μg/mL. On the procedure:
(§1) Mouse peritoneal macrophages were prepared according to previous method. Brewer thioglycollate medium (3 %, w/v, Sigma-Aldrich, USA) was intraperitoneally injected to C57BL/6 mouse. After 3 days, the mouse was euthanized and intraperitoneally injected with 20 mL RPMI-1640 medium to collect peritoneal macrophages. RAW264.7 cells were cultured in RPMI 1640 medium (10 % FBS, 100 U/mL penicillin and 100 μg/mL streptomycin, Gibco, USA) at 37 °C humidified with 5 % CO2. Mouse macrophages, peritoneal macrophages and RAW264.7 cells, were seeded in a 96-well (2 × 10^4 cells/well) plate, and cultured in RPMI 1640 medium (100 μL) supplemented with 2 % FBS, 100 U/mL penicillin and 100 μg/mL streptomycin (Gibco, USA) at 37 °C in a humidified 5 % CO2 incubator. The cytotoxicity of cecropin-TY1 against mouse macrophages was determined by Cell Counting Kit-8 assay (CCK-8) following the kit instruction. In brief, serial 2-fold peptide dilutions were added to each well, and control wells received the same volume of phosphate-buffered solution (PBS, 8 g/L NaCl, 0.2 g/L KCl, 0.2 g/L KH2PO4, 2.89 g/L Na2HPO4 · 12H2O, pH 7.4). After 24-h incubation, CCK-8 solution (10 μL/well) was added and incubated for an additional 4 h. The absorbance at 450 nm was monitored on a microplate reader (Epoch Etock, BioTek, USA).

The subject of data set [2] is mouse peritoneal macrophages. The settings on record: CCK-8, 24 h, concentration as high as 200 μg/mL. On the procedure:
as §1

A short description of data set [3]: Dissociation of FITC-conjugated LPS aggregates (fluorescence). It counts as binding. Conditions: FITC-LPS 1 μg/mL, 10 mM phosphate buffer pH 6.0, ex 480 nm / em 515 nm. On the procedure: Fluorescein isothiocyanate (FITC)-conjugated LPS (1 μg/mL, Sigma-Aldrich, USA) was excited at 480 nm and monitored the changes in the emission of FITC-LPS at 515 nm in the incubation of different concentrations of peptides (0, 12.5, 25, 50, 100 μg/mL). Peptides were dissolved in 10 mM phosphate buffer at pH 6.0. The interactions between peptides and LPS were further assessed by a quantitative Chromogenic End-point Tachypleus amebocyte lysate (TAL) assay kit (Xiamen Houshiji, China) following the kit instruction. Briefly, different concentrations of peptides (0, 12.5, 25, 50, 100 μg/mL) were incubated with LPS (1 μg/mL, Sigma-Aldrich, USA) at 37 °C for 30 min. After incubation, 100 μL TAL solution was added to 100 μL LPS-peptide mixtures in a pyrogen-free tube and incubated at 37 °C for 10 min. Then, LPS-peptide mixtures were added with pre-warmed substrate solution for additional 6-min incubation at 37 °C. Lastly, the absorbance at 545 nm was measured on a microplate reader (Epoch Etock, BioTek, USA). The percentages of LPS-neutralizing activity were calculated.

In data set [4] the test system is P-JNK2. Nature of the data set: Western blot, LPS-induced P-JNK2 in peritoneal macrophages. Format: cell-based, mouse. The settings on record: 20 μg/mL peptide, 100 ng/mL LPS, 30 min, band density ratio to β-actin. On the procedure:
Cells were treated with different concentrations of cecropin-TY1 (0, 5, 10, and 20 μg/mL) in the presence or absence of 100 ng/mL LPS (from E. coli 0111:B4, Sigma-Aldrich, USA). After 30-min incubation, cells were washed twice with ice-cold PBS and lysed with RIPA lysis buffer (Beyotime, China) on ice for 30 min according to our previous method. Protein concentration was quantified by BCA Protein Assay Kit (Thermo, Germany). About 40 μg protein was separated on a 10 % SDS-PAGE gel and transferred to a polyvinylidene difluoride membrane. The membrane was blocked by incubating with 5 % BSA (BD, USA) dissolved in Tris-buffered solution Tween-20 (TBST, 2.42 g/L Trisbase, 8 g/L NaCl, 0.1 % Tween 20, pH 7.6) for 2 h at room temperature. The membrane was then incubated with primary antibodies against ERK, phospho-ERK, p38, phospho-p38, JNK, phospho-JNK, phospho-IκBα, NF-κB p65 and phospho-NF-κB p65 (1:2000, Cell Signaling Technology, USA) and GAPDH/β-actin (1:5000, Santa Cruz Biotechnology, USA) overnight at 4 °C, respectively. After incubation, the immunoblot was washed three times with TBST for 5 min each time, and incubated with secondary antibody (1:5000, Cell Signaling Technology, USA) at room temperature for 1 h. Signals were measured by enhanced chemiluminescence kit in a dark room after washing three times with TBST for 10 min each time (TIANGEN, China).
(In general: Immunoblotting shows a protein as a band on a membrane.)

The test system of data set [5] is nitrite production. Nature of the data set: LPS-stimulated nitrite (NO) production in peritoneal macrophages. Format: cell-based, mouse. The settings on record: 100 ng/mL LPS, 24 h. On the procedure: Cells were incubated with peptides (0, 5, 10, and 20 μg/mL) in the presence or absence of LPS (100 ng/mL, from Escherichia coli 0111:B4, Sigma-Aldrich, USA). After 6-h incubation, cells in one plate were washed twice with ice-cold PBS and lysed by Trizol reagent (Life Tech, USA) for total RNA extraction. PrimeScript® Reverse Transcriptase Kit (Takara, Japan) was used to synthesize cDNA for qPCR to examine the transcription levels of inducible nitric oxide synthase (iNOS), which is necessary for NO production. After 24-h incubation, culture medium of each wells of another plate was harvested for nitrite detection, which indirectly reflected the NO production. Nitrite accumulation levels were determined by NO detection kit (Beyotime, China) following the kit instruction.

For data set [6] the following is noted: cited from earlier work. The source says:
Supplement 13071_2015_1149_MOESM1_ESM.docx, table 2: Table S2. Primary structural and biochemical characteristics of cecropin-TY1. | column: […]-NH2 39 +5 3970.22 Da 3970.66 Da 11.17

Consider “GWLKKIGKKIERVGQNVRNAAISTLPIAQGAAGVAGALN-NH2 [cecropin-TY1, cecropin antimicrobial peptide from salivary glands of horsefly Tabanus yao, 39 residues, C-terminally amidated, synthesized]”, for which the “cytotoxicity (cell viability)” value in data set [1] and in data set [2] was “didn’t show any cytotoxicity” throughout. The “increase of FITC-LPS fluorescence” value in data set [3] (12.5 μg/mL peptide) was determined as 33.4%; in data set [3] (25 μg/mL peptide), 46.7%; in data set [3] (50 μg/mL peptide), 63.3%; in data set [3] (100 μg/mL peptide), 71.6%. For the same substance, the “inhibition of LPS-induced P-JNK2 expression” value in data set [4] worked out at 66.1%. Also, the figures for the “attenuation of LPS-induced nitrite production” value in data set [5] (5 μg/mL peptide), in data set [5] (10 μg/mL peptide) and in data set [5] (20 μg/mL peptide) were “about 40.0%”, roughly 63.7% and roughly 75.0%, respectively. Besides, the Net charges in data set [6] is given as 5. The “Theoretical pI” value in data set [6] (theoretical) is 11.17.
